Assay results reported in patent publication US20240041796A1, “ANTI-INFLAMMATORY COMPOSITION COMPRISING N-BENZYL-N-METHYLDECAN-1-AMINE OR A DERIVATIVE THEREOF AS AN ACTIVE INGREDIENT” (PUSAN NATIONAL UNIVERSITY INDUSTRY-UNIVERSITY COOPERATION …, priority 2022, published 2024).

Key:
[1] = system: human THP-1 monocytic cell line; test: LPS-induced inflammation-related signal transduction in THP-1 cells, immunoblotting; type: cell-based; conditions: THP-1 cultured 3 hours with compound, then LPS 1 μg/ml 1 hour; FIG. 2A-B
Description: (§1) Each of BMDA (FMJ-G0) or DMMA (FMJ-G4) was added to a culture medium at concentrations of […], and 1 μM in a 6-well plate. The human THP-1 monocytic cell line (5×10^5 cells/well) was cultured therein for 3 hours. Each well was treated with lipopolysaccharide at a concentration of 1 μg/ml. After 1 hour, centrifugation was performed to obtain a supernatant which was used in an ELISA for inflammatory cytokine evaluation. Cell lysate was added to the collected THP-1 cells for immunoblotting.

[2] = system: human THP-1 monocytic cell line; test: ELISA of inflammatory cytokines in supernatant of LPS-treated THP-1 cells; type: cell-based; conditions: LPS 1 μg/ml, FIG. 2C
Description: as §1

male SD rats = test: DNBS-induced colitis model, enema administration; type: in vivo, rat; conditions: for inflammatory response caused by DNBS / length of the large intestine (colon) / ulcer scab: 500 μL of 200 μg/mL through the anus for 5 days; for inflammatory response caused by DNBS: FIG. 3A-B; for production amount of CNIC-3 chemokine: ELISA of colon supernatant, FIG. 3E; for body weight lost due to the DNBS treatment: FIG. 3C; for length of the large intestine (colon) / ulcer scab: vs DNBS+PBS group; for macrophage peroxidase (MPO) activity in colon: vs DNBS+PBS-treated rat, FIG. 3D
Description: For experimental colitis, male SD rats (250 to 260 g) were fasted one day before developing colitis. A water bottle was prepared so that only water could be consumed by the rats. Then, after anesthesia of the rats, a rubber cannula is inserted into the anus, and a solution in which 48.0 mg DNBS was dissolved in 0.4 mL of 50% alcohol was injected thereto through the cannula. This process was repeated for 3 days.
From the 4th day since the DNBS was inserted, anesthesia of the rats was carried out, and then BMDA (FMJ-G0) and a derivative thereof (DMMA, FMJ-G4) were diluted with PBS, and then 500 μL of the diluted substance was injected at a concentration of 200 μg/mL thereto through the anus. This process was repeated for 5 days. In a control group, DMSO was diluted in PBS at the same concentration and then was injected in the same way for 5 days. Thereafter, on day 6, the rats were suffocated, and the large intestine was removed therefrom to evaluate a level of colitis according to a known method.
Moreover, a portion of the large intestine was removed, placed in a cell lysis buffer (20 mM Tris-HCl [pH 7.5], 150 mM NaCl, 1 mM EDTA, 1% Triton X-100, 0.5% SDS), and subjected to ultrasonic treatment. Centrifugation was carried out to collect only the supernatant. We quantified the protein, and performed immunoblotting thereon.
Further, a portion of the supernatant obtained after the centrifugation as prepared for immunoblotting was used to measure the amount of the chemokine CINC-3 (Cytokine-induced neutrophil chemoattractant) based on ELISA. Moreover, in order to measure the level of activity of macrophages infiltrated into the distal colon, a titer of MPO (Myeloperoxidase) was measured. The distal colon was pulverized in a supersonic pulverizing device, was centrifuged to obtain the supernatant. Then, hydrogen peroxide was added to the supernatant for decomposition. Change in absorbance was measured at 460 nm for 1 minute.

Row | SMILES | activity of JNK activated by LPS [1] | activity of p38 MAPK activated by LPS [1] | inflammation-related signaling pathway leading to p38 MAPK-MK2 [1] | production of IL-1β [2] | production of TNF-α [2] | inflammatory response caused by DNBS (male SD rats) | production amount of CNIC-3 chemokine (male SD rats) | body weight lost due to the DNBS treatment (male SD rats) | length of the large intestine (colon) (male SD rats) | ulcer scab (male SD rats) | macrophage peroxidase (MPO) activity in colon (male SD rats)
1 | CCCCCCCCCCN(C)Cc1ccccc1 [BMDA, N-benzyl-N-methyldecan-1-amine] | suppressed | suppressed | inhibited | inhibited | inhibited | significantly reduced | low | did not restore | no significant difference | much smaller | much lower
2 | CCCCCCCCCCN(C)Cc1ccc(OC)cc1 [DMMA, Decyl-(4-methoxy-benzyl)-methyl-amine] | suppressed | suppressed | inhibited | inhibited | inhibited | significantly reduced | low | did not restore | larger than that of the DNBS+PBS-treated rat group | reduced | much lower
